Measurements: patent US10412963B2, “Agricultural and horticultural fungicide composition and plant disease controlling method” (SDS BIOTECH K.K., priority 2016, dated 2019)

Columns and labels:
[1] = test system: Botrytis cinerea; experiment: Effect test on cucumber gray mold (cucumber cotyledons, paper disc); format: in vivo; settings: 20° C., 4 days
Method: Cotyledons were harvested from cucumbers (variety: Hikari No. 3 P-type) that had been grown in a greenhouse for 3 weeks in a plastic pot having a diameter of 6 cm. The harvested cotyledons were placed side by side in a Tupperware container in which wetted filter paper was laid, and a paper disc having a diameter of 8 mm was placed on the center of each of the cotyledons. To each paper disc, 50 μL of a suspension of Botrytis cinerea spores (2×10^4/ml, containing 2% of sucrose and 0.2% of a yeast extract) was added, and at the same time, 50 μL of a phosphate buffer (40 mM, pH 7.2) having dissolved therein each wettable powder prepared in Formulation Example 1 at a target concentration was added. A lid was placed on the Tupperware container, which was kept at 20° C. for 4 days. After that, diseased areas were investigated with eyes to determine a preventive value. The preventive value (%) was calculated using the following equation. Preventive value=(1−(diameter of infection zone in leaf with test compound/diameter of infection zone in control leaf))×100

[2] = test system: cucumber powdery mildew; experiment: Effect test on cucumber powdery mildew (potted cucumbers, spray); format: in vivo; settings: 10 days after inoculation
Description: A sufficient amount of a dilute solution of each wettable powder prepared in Formulation Example 1 was spread with a spray gun on cucumbers (variety: Hikari No. 3 P-type) that had been grown in a greenhouse to the third-leaf unfolding stage in a plastic pot having a diameter of 6 cm. The next day, the cucumbers were inoculated with a suspension of cucumber powdery mildew spores by misting. The cucumbers were allowed to stand in the greenhouse for 10 days, and diseased area ratios in the first leaf and the second leaf (first and second leaves from the ground) were investigated with eyes to determine a preventive value. The preventive value (%) was calculated using the following equation. Preventive value=(1−(ratio of infection zone in leaf with test compound/ratio of infection zone in control leaf))×100

| Compound | Preventive value (%) ([1]; single chemical 0.5 ppm) | Preventive value (%) ([1]; single chemical 1 ppm) | Preventive value (%) ([1]; single chemical 2 ppm) | Preventive value (%) ([1]; single chemical 5 ppm) | Preventive value (%) ([1]; single chemical 10 ppm) | Preventive value (%) ([2]; single chemical 0.5 ppm) | Preventive value (%) ([2]; single chemical 1 ppm) | Preventive value (%) ([2]; single chemical 2 ppm) | Preventive value (%) ([2]; single chemical 5 ppm) | Preventive value (%) ([2]; single chemical 10 ppm) |
| --- | --- | --- | --- | --- | --- | --- | --- | --- | --- | --- |
| C[C@@H](N)C(=O)N[C@H]1COC(O)[C@H](N)[C@H]1O (stereo partly drawn) [Prumycin, 4-N-D-alanyl-2,4-diamino-2,4-dideoxyarabinose] | 6% | 45% | 55% | 95% | 100% | 7% | 21% | 44% | 69% | 95% |
| surfactin |  | 0% |  |  | 0% |  | 0% |  |  | 0% |
| iso-C14 [Ile^7]surfactin |  | 0% |  |  | 0% |  | 0% |  |  | 0% |
